Reference: patent US10849916B2 (priority 2014, dated 2020)

Test: Water (moisture) content by Karl Fischer method
Assay type: physicochemical
Conditions: for Water content tested by KF method: isolated impurity fraction from preparative HPLC
Procedure: 1. Water content: Water content was estimated by karl fischer (KF) method wherein suitable quantity of methanol was taken in the flask and titrated with karl fischer reagent to neutralize the methanol. Then weighed quantity of the sample is added to the flask and titrated to the end point.

Structure (SMILES)	Water content tested by KF method [% by weight]	Water content in the vials (after drying under vacuum in lyophilizer)	Water content of the input cyclophosphamide monohydrate (input drug substance, before drying)
CCOP(=O)(O)OCCCN1CCNCC1 [0.21 RRT, ethyl (3-(piperazin-1-yl)propyl) hydrogen phosphate]	2.69		
CCOCCN(CCCl)P1(=O)NCCCO1 (stereo not shown) [0.75 RRT, 2-((2-chloroethyl)(2-ethoxyethyl)amino)-1,3,2-oxazaphosphinane 2-oxide]	2.71		
O=P1(N(CCCl)CCCl)NCCCO1 (stereo not shown) [Cyclophosphamide, 2-[bis(2-chloroethyl)amino]tetrahydro-2H-1,3,2-oxazaphosphorine 2-oxide monohydrate]		approximately 1%	*Water content of the input cyclophosphamide monohydrate is 6.25% w/w.
